Source: patent publication US5728726A, “Method and compositions for inhibiting protein kinases” (Cor Therapeutics, Inc., priority 1995, dated 1998)
Read-outs that look alike come from different tables or passages of the source. Values belong to the compound of their own block, whether it stands above or below them.

Columns and labels:
[1] = tested on: human cell lines (HS68, HS 27, CCD18, and WS1); settings: 96 hours
[2] = tested on: human cell lines (HS68, HS 27, CCD18, and WS1); assay: cells
Protein Kinase A (PKA) = Protein Kinase A (PKA) (Homo sapiens, UniProt P17612); assay: Protein Kinase A non-radioactive kinase assay (UBI)
human FGF receptor-1 = molecular target: T1, human FGF receptor-1 (Homo sapiens, UniProt P11362); assay: FGF receptor-1 autophosphorylation in CHO cells; format: cell-based
T1 construct: expressed in transfected cells; host or cells: CHO cells
T1 sequence (P11362 22-822): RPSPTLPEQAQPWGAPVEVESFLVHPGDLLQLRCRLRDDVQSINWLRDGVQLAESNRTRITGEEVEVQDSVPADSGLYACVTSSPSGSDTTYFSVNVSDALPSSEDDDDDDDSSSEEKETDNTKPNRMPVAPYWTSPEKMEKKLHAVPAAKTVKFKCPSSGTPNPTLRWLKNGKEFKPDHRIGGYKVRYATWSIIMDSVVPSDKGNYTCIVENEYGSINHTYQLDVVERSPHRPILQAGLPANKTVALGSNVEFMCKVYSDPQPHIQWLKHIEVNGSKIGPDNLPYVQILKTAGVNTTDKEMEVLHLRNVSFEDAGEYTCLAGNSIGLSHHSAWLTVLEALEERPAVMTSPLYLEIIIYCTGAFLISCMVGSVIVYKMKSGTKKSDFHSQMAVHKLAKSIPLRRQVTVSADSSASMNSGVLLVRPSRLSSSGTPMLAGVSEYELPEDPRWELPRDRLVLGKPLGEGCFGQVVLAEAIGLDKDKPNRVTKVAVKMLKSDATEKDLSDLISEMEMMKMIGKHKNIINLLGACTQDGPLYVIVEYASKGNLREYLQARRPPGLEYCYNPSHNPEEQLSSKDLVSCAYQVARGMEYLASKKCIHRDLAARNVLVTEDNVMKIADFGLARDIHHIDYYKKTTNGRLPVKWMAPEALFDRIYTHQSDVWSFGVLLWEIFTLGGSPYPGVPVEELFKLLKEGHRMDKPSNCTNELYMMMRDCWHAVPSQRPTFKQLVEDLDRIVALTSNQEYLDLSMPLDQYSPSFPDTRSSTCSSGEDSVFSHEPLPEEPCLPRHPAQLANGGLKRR
Protocol: In order to measure FGF receptor-1 autophosphorylation, the human FGF receptor-1 cDNA was stably over-expressed in CHO cells using standard techniques. These cells were grown to confluency in RPMI with 10% fetal bovine serum, the media was replaced with serum-free RPMI and incubation continued for 18 hours prior to stimulation with BFGF (75 ng/ml) for 10 min at 37° C. in the absence of presence or PTK inhibitors in a concentration range of 0.1-30 μM Cell lysates were prepared under the same conditions as described above for the EGF receptor assay. Lysates were incubated with a monoclonal antibody directed against the FGF receptor-1 extracellular domain (prepared at COR Therapeutics, South San Francisco, Calif.) and the immunoprecipitated receptor was subjected to SDS-PAGE and Western blot analysis with antiphosphotyrosine antibodies as described above for EGF receptor.

Protein Kinase C (PKC) = assay: Protein Kinase C non-radioactive kinase assay (UBI); settings: at a concentration of 40 μm
WS1 = assay: cell proliferation under normal tissue culture conditions, WS1; format: cell-based; settings: Homo sapiens, read-out: IC50 WS1
human beta PDGFR = human beta PDGFR (Homo sapiens, UniProt P09619); assay: beta PDGF receptor autophosphorylation in HR5 cells
Sequence of human beta PDGFR (P09619 33-1106): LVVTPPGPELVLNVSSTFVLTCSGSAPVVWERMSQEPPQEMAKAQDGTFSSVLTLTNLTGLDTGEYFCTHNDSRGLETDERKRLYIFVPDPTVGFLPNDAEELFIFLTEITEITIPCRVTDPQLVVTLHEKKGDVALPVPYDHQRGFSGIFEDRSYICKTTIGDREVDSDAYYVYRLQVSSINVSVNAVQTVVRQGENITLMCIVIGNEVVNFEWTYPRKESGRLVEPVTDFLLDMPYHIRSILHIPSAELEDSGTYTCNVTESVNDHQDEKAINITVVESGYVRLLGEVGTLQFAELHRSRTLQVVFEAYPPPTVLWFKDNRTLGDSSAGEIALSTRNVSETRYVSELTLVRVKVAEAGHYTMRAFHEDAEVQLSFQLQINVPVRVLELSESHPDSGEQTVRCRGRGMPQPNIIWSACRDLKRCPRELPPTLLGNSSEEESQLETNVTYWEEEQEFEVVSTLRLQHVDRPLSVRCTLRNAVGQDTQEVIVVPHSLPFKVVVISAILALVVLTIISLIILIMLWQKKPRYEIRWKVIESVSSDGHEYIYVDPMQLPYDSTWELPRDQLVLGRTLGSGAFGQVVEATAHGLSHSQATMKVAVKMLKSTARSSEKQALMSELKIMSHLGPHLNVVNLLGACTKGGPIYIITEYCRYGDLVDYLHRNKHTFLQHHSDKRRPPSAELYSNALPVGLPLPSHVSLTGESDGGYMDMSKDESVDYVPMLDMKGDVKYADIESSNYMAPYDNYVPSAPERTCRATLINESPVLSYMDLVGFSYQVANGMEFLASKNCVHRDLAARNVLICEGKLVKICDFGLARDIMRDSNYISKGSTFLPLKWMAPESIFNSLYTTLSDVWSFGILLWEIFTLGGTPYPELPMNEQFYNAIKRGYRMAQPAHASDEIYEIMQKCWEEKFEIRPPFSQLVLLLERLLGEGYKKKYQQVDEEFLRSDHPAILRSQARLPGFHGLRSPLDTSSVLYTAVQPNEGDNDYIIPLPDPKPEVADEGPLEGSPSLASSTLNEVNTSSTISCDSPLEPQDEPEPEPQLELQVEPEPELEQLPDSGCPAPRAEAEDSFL

HS68 = assay: cell proliferation under normal tissue culture conditions, HS68; settings: Homo sapiens, Hs68, 96 h, read-out: IC50 HS68
HS27 = assay: cell proliferation under normal tissue culture conditions, HS27; format: cell-based; settings: Homo sapiens, read-out: IC50 HS27
HS68 cells = assay: PDGF BB-induced [3H]thymidine incorporation into HS68 cells; format: cell-based; settings: Homo sapiens, Hs68, read-out: concentration blocking PDGF BB induced thymidine incorporation by 50%
Protocol: […]. Since there are many reports in the literature implicating PDGF in diseases such as glomerulonephritis, cancer, atherosclerosis, and restenosis we tested 292 for its ability to block PDGF induced cell proliferation. A human primary fibroblast cell line, HS68 (ATCC), was plated into 96 well dishes at 150,000 cells/well in media containing 10% fetal bovine serum in DMEM. The cells were incubated at 37° C. for 7-10 days at which time they had become confluent and quiescent. […] To determine the level of cell proliferation, […] of [^3 H ]thymidine were added to each well and incubation was continued for an additional 5 hours. Cells were then washed with 5% cold trichloroacetic acid (TCA), solubilized in 0.2N NaOH, 0.1% SDS and the amount of [^3 H]thymidine incorporation was determined. […].

CCD18 = assay: cell proliferation under normal tissue culture conditions, CCD18; format: cell-based; settings: Homo sapiens, read-out: IC50 CCD18
recombinant c-src = recombinant c-src (Homo sapiens, UniProt P12931); assay: recombinant c-src kinase microtiter plate assay
Sequence of recombinant c-src (P12931 whole entry): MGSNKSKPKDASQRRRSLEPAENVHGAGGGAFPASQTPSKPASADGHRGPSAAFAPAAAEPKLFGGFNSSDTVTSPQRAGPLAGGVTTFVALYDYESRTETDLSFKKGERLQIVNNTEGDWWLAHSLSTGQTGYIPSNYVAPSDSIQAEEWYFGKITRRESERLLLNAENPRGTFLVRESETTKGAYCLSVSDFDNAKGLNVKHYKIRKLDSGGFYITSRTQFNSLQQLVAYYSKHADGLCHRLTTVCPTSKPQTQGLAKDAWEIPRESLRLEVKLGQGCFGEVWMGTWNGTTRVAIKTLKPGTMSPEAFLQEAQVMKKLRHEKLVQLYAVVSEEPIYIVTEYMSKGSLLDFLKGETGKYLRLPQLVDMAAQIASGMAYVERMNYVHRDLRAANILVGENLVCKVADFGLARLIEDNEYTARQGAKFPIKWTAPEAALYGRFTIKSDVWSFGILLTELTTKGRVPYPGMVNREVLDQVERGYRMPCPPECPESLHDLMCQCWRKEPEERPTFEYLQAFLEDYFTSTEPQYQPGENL

IC50 (Protein Kinase A (PKA)): > 40000 nM
reduction in PKA activity (Protein Kinase A (PKA); at a concentration of 40 μm): did not achieve a 50% reduction
IC50 (human FGF receptor-1; Table 2, inhibition of protein kinase activity): > 30000 nM
inhibition of FGF receptor autophosphorylation (human FGF receptor-1; concentrations as high as 30 μM): no detectable inhibition
reduction in PKC activity (Protein Kinase C (PKC)): did not achieve a 50% reduction
IC100 (human beta PDGFR; read-out: concentrations at which complete inhibition was observed): > 0.2 µM
IC50 (HS68 cells): 16 nM
SMILES: COc1cc(O)c2c(c1)/C=C/C[C@H](O)[C@H](O)C(=O)/C=C\C[C@H](C)OC2=O [Compound 292]
decrease in cell growth of any of the cell lines tested ([1]; concentrations up to 10 μm): no decrease
inhibition at 30 µM ([2]; 96 h, read-out: decrease in cell growth): 10 to 20%
IC50 (WS1; WS1, Table 3, 96 hours, 10% fetal bovine serum): > 30000 nM
IC50 (HS68): > 30000 nM
IC50 (HS27; HS27, Table 3, 96 hours, 10% fetal bovine serum): > 30000 nM
IC50 (CCD18; Table 3, 96 hours, 10% fetal bovine serum): > 30000 nM

SMILES: COC(=O)[C@@]1(O)C[C@H]2O[C@]1(C)n1c3ccccc3c3c4c(c5c6ccccc6n2c5c31)C(=O)NC4 [Compound K252a, K252a, reference compound]
IC50 ([2]; read-out: concentration range inhibiting cell growth by 50%): 1000 to 12000 nM
IC50 (Protein Kinase A (PKA)): 70 nM
IC50 (Protein Kinase A (PKA); IC50 PKA, Table 2, inhibition of protein kinase activity): 70 nM
IC50 (WS1; WS1, 96 h): 5000 nM
IC50 (human beta PDGFR): 270 nM
IC50 (HS68): 5000 nM
IC50 (recombinant c-src): 20 nM
IC50 (HS27; HS27, 96 h): 12000 nM
IC50 (CCD18; 96 h): 1000 nM

SMILES: CN[C@@H]1C[C@H]2O[C@@](C)([C@@H]1OC)n1c3ccccc3c3c4c(c5c6ccccc6n2c5c31)C(=O)NC4 [Staurosporin, reference compound]
concentration completely blocking the growth of all of the cell lines [1]: 10 nM
